The results in this text go back to EPA's ToxValDB 9.5 (doi:10.2903/j.efsa.2006.88r).

In brackets after ≈: the same amount, converted by molar mass.

One series concerns Tagia sp. The settings on record: mortality.
A further series concerns Apis mellifera. The following applies: acute; duration: 48 hours; oral; unspecified; mortality.
A further series deals with Daphnia magna. The settings on record: chronic/long-term; duration: 21 days; reproduction.
The subject of a further series is Oryctolagus sp. The settings on record: subchronic; oral; histopathology: nonneoplastic.
For series [1] the following is noted: acute; oral; unspecified; mortality.
The next series deals with Canidae. The settings on record: subchronic; oral; Dog Other; histopathology: nonneoplastic.

The NOAEL is the highest tested level that showed no adverse finding. As to `CSc1nnc(C(C)(C)C)c(=O)n1N` [Metribuzin], the LC50 was 427 mg/kg with Tagia sp. (acute, duration: 14 days); 74.6 µg/mL (≈ 348 µM) in the series on Oncorhynchus mykiss (acute, duration: 96 hours, mortality); more than 359 mg/kg-day with Bird (short-term, oral, feed, mortality). The NOEC came out at 5250 g/ha in the series with Tagia sp. (chronic/long-term, duration: 8 weeks); 4.4 mg/L in the series with Oncorhynchus mykiss (chronic/long-term, duration: 95 days, growth); 0.32 mg/L with Daphnia magna; 28.3 mg/kg-day in the series on Bird (reproductive). Also, the LD50 with Apis mellifera worked out at 166 µg/piece; in the series with Bird (acute, oral, unspecified, mortality) it was 164 mg/kg; in [1], 322 mg/kg. In addition, the NOAEL is more than 2 mg/kg-day in the series on Rattus norvegicus (acute, clinical signs); 1.3 mg/kg-day in the series on Rattus norvegicus (chronic, duration: 2 years); 2.2 mg/kg-day in the series on Rattus norvegicus (reproduction developmental, body weight); 2 mg/kg-day in the series on Rattus norvegicus (subchronic, oral, histopathology: nonneoplastic); 2 mg/kg-day in the series on Oryctolagus sp.; 2 mg/kg-day in the series with Canidae.
